The results in this text go back to ChEMBL document CHEMBL3507680, “University of Dundee, Gates Library screen for HepG2 cell viability”.

Molecules are shown by their SMILES.

The nature of this data set: Human HepG2 cell viability assay in 384 well format. Type of data set: toxicity, cell-based. The following applies: HepG2 cells, read-out: Inhibition. Details: dose 125 nL, time 70.5 hour; cytotoxicity at 70.5 h: concentration not given beside the values.

Regarding `CC(C)(C)NC(=O)NCc1cnn2ccccc12`, the cytotoxicity at 70.5 h was -9.3%.
The figure for `Cc1nccn1-c1ccc(=O)n(CCNC(=O)Cc2ccccc2)n1` is -12.3%; for `Cc1ccc(S(=O)(=O)Nc2ccc(-n3nnn(C)c3=O)cc2)cc1` it is 1.6%.
Take `Cn1nnn(-c2ccc(NS(=O)(=O)c3ccc(F)c(Cl)c3)cc2)c1=O`: the cytotoxicity at 70.5 h is -2.9%.
The figure for `O=C(c1nnn(-c2ccccc2)n1)N(CCO)CCO` is -5.32%.
For `Cc1ccc(-n2nnc(C(=O)NCC3CCCCC3)n2)cc1`, the cytotoxicity at 70.5 h is -7.05%.
Under `COCC(C)NC(=O)c1nnn(-c2ccc(OC)cc2)n1` (configuration not stated) stands -9.57%; under `O=C(c1nnn(-c2ccc(F)cc2)n1)N1CCC(O)CC1`, 2.17%; under `COCC(C)NC(=O)c1nnn(-c2ccc(F)cc2)n1` (configuration not stated), -5.45%.
Regarding `O=C(c1nnn(-c2ccc(Cl)cc2)n1)N(CCO)Cc1ccccc1`, the cytotoxicity at 70.5 h is -1.6%.
Under `O=C(NC1(c2nc(C3CC3)no2)CCCCC1)c1ccncc1` stands 5.56%; under `COCCNC(=O)NC1(c2nc(-c3ccncc3)no2)CCCCC1`, 5.97%.
The figure for `O=C(Cn1cccn1)N1CCC(c2nnc(C(F)(F)F)o2)CC1` is 30.9%.
As to `CC(=O)N1CCC(c2nn(C)c(=O)n2-c2ccccc2)CC1`, the cytotoxicity at 70.5 h was -1.32%.
The figure for `Cn1c(C(F)(F)F)nn(CCNC(=O)CCc2ccccc2)c1=O` is 22.1%; for `Cn1c(C(F)(F)F)nn(CCNC(=O)c2nc3ccccc3s2)c1=O` it is -8.57%; for `CCS(=O)(=O)N1CCC(c2nnc(C(F)(F)F)o2)CC1` it is 5.3%.
Take `CNC(=O)CN1CCC(c2nn(C)c(=O)n2-c2ccccc2)CC1`: the cytotoxicity at 70.5 h was -4.2%.
Regarding `O=C1COc2ccc(Cl)cc2CN1CC1CC1`, the cytotoxicity at 70.5 h was -12%.
The figure for `O=C1COc2ccc(Br)cc2CN1CC1CC1` is -16.7%; for `O=C(c1nnn(-c2ccccc2Cl)c1-c1ccccn1)N1CCSCC1` it is -2.09%.
With `O=C(Cn1ccc2ccccc21)Nc1cc(N2CCOCC2)ncn1`, the cytotoxicity at 70.5 h was 14.8%.
Under `O=C(Cc1c(F)cccc1Cl)Nc1cc(N2CCOCC2)ncn1` stands 9.04%; under `Cc1nc(C)c(C(=O)Nc2cc(N3CCC(C)CC3)ncn2)s1`, 0.183%.
The figure for `COc1ccc(F)cc1S(=O)(=O)NCCn1cnc(C)cc1=O` is -12.5%.
The figure for `Cn1nc(N2CCCC(C(=O)Nc3nccs3)C2)ccc1=O` (configuration not stated) is 18%.
On to `Cc1cc(C(=O)N(CC(F)(F)F)C2CCOCC2)c(C)o1`, for which the cytotoxicity at 70.5 h is -7.23%.
Turning to `O=C(C1=COCCO1)N1CC(Oc2nc3c(Cl)cccc3s2)C1`, the cytotoxicity at 70.5 h stood at 30.4%.
Under `CCOCC(=O)NCCc1nc(C)cc(C(F)(F)F)n1` stands -10.8%; under `O=C(CN1C(=O)CCC1=O)NCCc1nc(C2CC2)cc(C(F)(F)F)n1`, 31.4%.
Under `O=C1CCSCC(C(=O)N2CCCCC2)N1` (configuration not stated) stands -0.797%; under `CS(=O)(=O)N1CCN(C(=O)C2CSCCC(=O)N2)CC1` (configuration not stated), 19.7%; under `Cc1nnc(CNC(=O)C2CSCCC(=O)N2)o1` (configuration not stated), 45.2%.
Under `CC(NC(=O)C1CN(c2ncnc3c2nnn3C)C1)c1ccccc1` (configuration not stated) stands -16.6%; under `O=C(O)CC(CC(=O)NCCc1ccsc1)c1cccs1` (configuration not stated), -13.1%; under `O=C(CCn1ccc(=O)[nH]c1=O)N1CCC(Oc2ccccn2)CC1`, -4.88%.
For `Cc1ccc(S(=O)(=O)N2CCC(Oc3ccccn3)CC2)c(C)c1`, the cytotoxicity at 70.5 h is -19.6%.
As to `CCOC(=O)CCC(=O)N1CCC(Oc2ncccc2Cl)CC1`, the cytotoxicity at 70.5 h was -4.05%.
Under `O=C(c1ccccn1)N1CCC(Oc2ncccc2Cl)CC1` stands -2.05%; under `COc1ccc(F)cc1S(=O)(=O)N1CCC(Oc2ccc(Cl)cn2)CC1`, -3.49%.
As for `COc1ccccc1C(=O)N1CCC(Oc2ccc(C#N)cn2)CC1`, the cytotoxicity at 70.5 h was -2.18%.
Under `N#Cc1ccc(OC2CCN(C(=O)c3ccc(Br)o3)CC2)nc1` stands 20.2%.
The figure for `Cc1noc(C)c1S(=O)(=O)N1CCC(Oc2cnccn2)CC1` is 11.2%; for `COC(=O)c1sccc1S(=O)(=O)N1CCC(Oc2cnccn2)CC1` it is -7.44%; for `O=S(=O)(c1ccccc1F)N1CCC(Oc2cccnn2)CC1` it is -7.73%.
For `O=C(NCc1ccccc1)N1CCC(Oc2ncccc2Br)CC1`, the cytotoxicity at 70.5 h was -7.02%.
The figure for `Cc1nc(OCC(=O)N2CCCC2)cc(-n2cccn2)n1` is -7.15%; for `O=C(COc1ccc(-n2cccn2)nn1)N1CCCC1` it is -2.51%.
`COc1ncc(NS(=O)(=O)c2ccc(F)cc2F)cn1`: the cytotoxicity at 70.5 h is -3.22%.
On to `Cc1cccc(C(=O)N2CCN(c3ccc(-n4cccc4)nn3)CC2)c1`, for which the cytotoxicity at 70.5 h is -7.5%.
Under `O=S(=O)(NCCNc1ccc(-n2cccc2)nn1)c1ccccc1` stands -5.01%.
Under `O=S(=O)(Cc1ccccc1)NCCNc1ccc(-n2cccc2)nn1` stands -13.6%; under `O=S(=O)(NCCNc1ccc(-n2cccc2)nn1)c1cccs1`, 3.82%.
The figure for `O=C(NCCNc1cc(-n2cccc2)ncn1)c1cccs1` is -4.09%.
Take `c1cncc(COCC2CN(Cc3ccco3)Cc3nccn3C2)c1` (configuration not stated): the cytotoxicity at 70.5 h was -9.74%.
Consider `COCC1c2nnn(CC3CC3)c2CCN1C(=O)CS(C)(=O)=O` (configuration not stated), for which the cytotoxicity at 70.5 h is -12.6%.
With `COCC1c2nnn(CC3CC3)c2CCN1C(=O)C1CCOCC1` (configuration not stated), the cytotoxicity at 70.5 h was -11.4%.
Under `COCC1c2nnn(CC3CC3)c2CCN1C(=O)c1cnccn1` (configuration not stated) stands -13%; under `COCC1c2nnn(CC3CC3)c2CCN1C(=O)c1cc(C)[nH]c1C` (configuration not stated), -9.95%.
The figure for `CS(=O)(=O)N1CCCC12CCCN(C(=O)c1cc(F)cc(F)c1)C2` (configuration not stated) is -11.7%; for `COCC1c2nnn(CC3CC3)c2CCN1C(=O)c1ccncn1` (configuration not stated) it is 9.24%; for `Cc1nc(C)n(CC2CN(S(C)(=O)=O)Cc3nccn3C2)n1` (configuration not stated) it is 9.77%.
The figure for `CN(C)C(=O)c1cc2c(nc1NCC1CC1)CCNCC2` is 29.7%; for `Cc1cccc(C(=O)N2CCCn3cnc(CN4CCCC4=O)c3C2)n1` it is 30.9%; for `Cc1noc(C2CCC3(CCN(C(=O)c4sccc4C)CC3)O2)n1` (configuration not stated) it is -4%.
In the case of `O=C(c1cccnc1)N1CCOCC2(CCN(c3ncccn3)C2)C1` (configuration not stated), the cytotoxicity at 70.5 h is -1.45%.
As to `CS(=O)(=O)N1CCc2ncc(CNC(=O)C3CCC3)n2CC1`, the cytotoxicity at 70.5 h was -1.87%.
Under `CC(C)CC(=O)N1CCCn2cnc(CNS(C)(=O)=O)c2C1` stands 2.43%; under `COCCN1CCC2(CC1)COc1ccccc1S(=O)(=O)N(C)C2`, 2.33%.
With `Cc1noc(C2CCC3(CCN(C(=O)c4ccn(C)n4)CC3)O2)n1` (configuration not stated), the cytotoxicity at 70.5 h was 10.4%.
Regarding `CCOC[C@H]1CC[C@H]2[C@H](CCN2C(=O)c2cnccn2)O1`, the cytotoxicity at 70.5 h is -4.15%.
Under `COC[C@H]1CC[C@H]2[C@H](CCN2C(=O)c2ccncc2F)O1` stands -0.359%; under `CCOC[C@@H]1CC[C@H]2[C@H](CCN2C(=O)c2cnccn2)O1`, 2.78%; under `CCC(=O)N1CCC2(COCc3cnc(NCc4ccco4)nc32)C1` (configuration not stated), 0.523%.
The figure for `Cc1cccc(CN2C[C@@H]3CCCO[C@@H]3[C@H](Nc3ccccn3)C2)n1` is 1.63%; for `CCn1ncc2c1C(COC)CN(Cc1cnn(C)c1)C2` (configuration not stated) it is 8.92%.
The figure for `Cc1cc(CN2C[C@@H]3COC[C@]3(COCC(=O)N(C)C)C2)no1` is -4.13%; for `Cc1ccc(CN2CCC3(CC(=O)N(c4cccc(F)c4)C3)C2)o1` (configuration not stated) it is -17.4%.
As to `O=C1CC2(CCN(CCO)C2)CN1c1cccc(F)c1` (configuration not stated), the cytotoxicity at 70.5 h was -10.9%.
As to `Cc1ncsc1CN1C[C@@H](OCC(=O)N(C)C)[C@H]2OCCC[C@H]21`, the cytotoxicity at 70.5 h is -11.1%.
With `Cc1ccc(C(=O)N2CCc3ncnc(-c4cnn(C)c4)c3CC2)cn1`, the cytotoxicity at 70.5 h was -2.36%.
Consider `O=C(NCC1CC1)[C@@H]1CC[C@@H]2[C@@H](CCN2Cc2ccco2)O1`, for which the cytotoxicity at 70.5 h amounted to 1.26%.
Under `CN(C)C(=O)N1CCC2(CC1)CCN(c1ncccn1)C2` stands 2.39%; under `Cc1oncc1C(=O)N1CCc2ncnc(-c3cnn(C)c3)c2CC1`, -1.31%; under `CNC(=O)c1ccc2c(c1)C1(CCN(C(C)C)CC1)C(=O)N2`, 2.6%.
Under `CN(C)C(=O)COC[C@]12COC[C@H]1CN(Cc1ccccc1)C2` stands -2.22%.
Turning to `Cc1nc(CN2C[C@@H]3COC[C@]3(COCC(=O)N(C)C)C2)cs1`, the cytotoxicity at 70.5 h was -5.31%.
The figure for `CN(C)CCn1c2c(ccc1=O)CCN(C(=O)c1ccoc1)CC2` is -1.95%.
Under `O=C1CC2(CCN(Cc3ccncc3)C2)CN1c1cccc(F)c1` (configuration not stated) stands -12.5%.
Under `COCCN1CCc2cc(C(=O)O)c(NCC3CC3)nc2CC1` stands 22.8%; under `CN(C)CCOCC1CN(Cc2ccsc2)Cc2nnn(C)c21` (configuration not stated), 30.5%.
Take `CN(C)CCOCC1CN(Cc2ccc(F)cc2)Cc2nnn(C)c21` (configuration not stated): the cytotoxicity at 70.5 h came out at 2.45%.
The figure for `O=C(NCCc1ccccn1)[C@@H]1CC[C@@H]2[C@@H](CCN2Cc2ccoc2)O1` is 0.0992%; for `CCn1ncc2c1C(COC)CN(Cc1ccc(F)cc1)C2` (configuration not stated) it is 2.06%.
Under `Cc1cccc(CN2C[C@@H]3COC[C@]3(COCC(=O)N(C)C)C2)n1` stands -3.44%; under `Cc1ncsc1CN1C[C@@H]2CCCO[C@@H]2[C@H](Nc2ccccn2)C1`, -4.96%; under `COCCO[C@H]1CCN(Cc2cccnc2)[C@H]1Cc1cccnc1`, 17.5%.
